Assay results reported in PMC9415509, “Pro-Apoptotic Antitumoral Effect of Novel Acridine-Core Naphthoquinone Compounds against Oral Squamous Cell Carcinoma” (Molecules, 2022).
pIC50: −log10 of the molar value. Where “and” joins values, the source holds several entries; their conditions need not be identical. Equal values may be shown once.

What was measured:
SCC9 (OSCC cell) = experiment: MTT cell viability assay (cytotoxicity), SCC9; format: cell-based, human
Procedure: (§1) Cells and reagents. Human SCC-4, SCC-9, and SCC-25 cells, derived from a human oral tongue SCC (squamous cell carcinoma) were obtained from the ATCC (CRL-1624, CRL-1629, and CRL-1628, respectively) and maintained in 1:1 DMEM/F12 (Dulbecco’s modified Eagle medium and Ham’s F12 medium; Gibco (Thermo Fisher, Waltham, MA, USA)) supplemented with 10% (v/v) FBS (fetal bovine serum; Invitrogen, Thermo Fisher, Waltham, MA, USA) and 400 ng/mL hydrocortisone (Sigma-Aldrich Co., St. Louis, MO, USA). Primary normal human gingival fibroblasts were obtained from the ATCC (PCS-201-018) and maintained in DMEM supplemented with 10% (v/v) FBS and were used in a maximum of six passages. The cells were grown in a humidified environment containing 5% CO2 at 37 °C. […] Carboplatin stock was prepared in water (Fauldcarbo®; LibbsFarmacêutica, São Paulo, SP, Brazil) and was used as a standard anticancer compound.
(§2) Cell viability assay (cytotoxicity) and compound stability assay. The viability of SCC cell lines and primary human fibroblast cells was evaluated using the MTT assay as in [48]. Briefly, the cells were grown in triplicates in 96-well plates (5 × 10^3 cells/well) until confluence. Then, the medium was removed, fresh medium was added, and the cells were returned to the incubator in the presence of different compounds. DMSO at the same concentrations was used as a 100% cell viability control. After 48 h, the cells were incubated with 5 mg/mL MTT reagent (3-(4,5-dimethyl-2-thiazolyl)-2,5-diphenyl-2-H-tetrazolium bromide) (Sigma-Aldrich Co., St. Louis, MO, USA) for 3.5 h. After that, formazan crystals were dissolved in MTT solvent solution (DMSO/methanol 1:1 v/v) and the absorbance at 560 nm was evaluated using an EPOCH microplate spectrophotometer (BioTek Instruments, Winooski, VT, USA) with the background absorbance at 670 nm subtracted.
(§3) Statistical analysis, IC50 calculation. The data are presented as means ±\SD. IC50 values for the MTT assays were obtained by nonlinear regression using the […] 5.0 program (Intuitive Software for Science, San Diego, CA, USA) from at least three independent experiments. A dose–response (inhibitor) vs. response curve using the least squares method was used to determine the IC50, SD, and R^2 of the data. The selectivity index was calculated as SI = IC50 of the compound in normal oral fibroblast cells/IC50 of the same compound for each oral cancer cell line (SCC-4, SCC-9, and SCC-25) and the mean was calculated when indicated.

SCC25 OSCC cell line = experiment: MTT cell viability assay (cytotoxicity), SCC25; format: cell-based, human
Procedure: as §1, §2, §3

SCC4 OSCC cell line = experiment: MTT cell viability assay (cytotoxicity), SCC4; format: cell-based, human
Procedure: as §1, §2, §3

[1] = tested on: OSCC cells (SCC-4, SCC-9, SCC-25); experiment: MTT cytotoxicity and selectivity, mean over OSCC cell lines; format: cell-based, human
Procedure: as §2
Statistical analysis, IC50 calculation. The data are presented as means ±\SD. IC50 values for the MTT assays were obtained by nonlinear regression using the […] […] The selectivity index was calculated as SI = IC50 of the compound in normal oral fibroblast cells/IC50 of the same compound for each oral cancer cell line (SCC-4, SCC-9, and SCC-25) and the mean was calculated when indicated.

Hemolysis assay = format: cell-based; details: human, human erythrocytes, relative to triton x-100 = 100% lysis
Procedure: Hemolysis assay. To determine the surfactant power of substances in biological membranes, a hemolysis assay was performed using human blood approved by the Research Ethics Committee of Universidade Federal Fluminense (CAAE: 43134721.4.0000.5626). Erythrocytes were collected for centrifugation at 1500 rpm for 15 min, washed with PBS (phosphate-buffered saline) supplemented with 10 mM glucose, and counted in an automatic cell counter (Thermo Fisher, Waltham, MA, USA). Erythrocytes were then plated in 96-well plates at a concentration of 4 × 10^8 cells/well in triplicates, and 10 µL of compounds was added at a final concentration of 300 µM in PBS with glucose (final volume 100 µL). In total, 10 µL of PBS was used as a negative control and 10 µL of PBS with 0.1% Triton ×100 as a positive control. Data reading was performed with EPOCH (BioTek Instruments, Winooski, VT, USA) at an absorbance of 540 nm, and the statistical data were generated using the […] Prism 5.0 program (Intuitive Software for Science, San Diego, CA, USA).

SCC9 cells [2] = experiment: Caspase 3/7 activity, flow cytometry; format: cell-based, human; details: SCC9, 2× IC50, 48 h
Procedure: (§4) Phosphatidylserine exposure analysis (apoptosis). Cells of the SCC9 cell line were plated in 6-well plates (5 × 10^5 cells/well), trypsinized 48 h after treatment, labeled using the Annexin V-FITC Apoptosis Detection Kit according to the manufacturer’s protocol (#BMS500FI/300, Invitrogen), and analyzed by FACScalibur flow cytometry as in [50]. Furthermore, 5 × 10^4 SCC9 cells were plated in a 24-well plate containing 1 mL of DMEM/F12 with 10% FBS per well. CellEvent™ Caspase-3/7 Reagent (#R37111, Invitrogen) was diluted in a culture medium according to the manufacturer’s instructions. […] The cells were analyzed by flow cytometry at the time of 48 h of treatment.

SCC9 cells [3] = experiment: Phosphatidylserine exposure analysis (Annexin V/PI); format: cell-based, human; details: SCC9, 48 h
Procedure: as §4

SCC9 cells [4] = experiment: ROS production (ROS-Glo H2O2 assay); format: cell-based, human; details: SCC9, 2 × IC50, 3, 6, 24 and 48 h
Procedure: ROS production. The hydrogen peroxide (H2O2) luminescence assay was performed using the ROS-Glo™ H2O2 assay kit (Promega Corporation, Madison, WI, USA). […] A plate with wells without cells was used as a control. The cells and cell-free wells remained in treatment at the times of interest and, 2 h before the completion of the times, the well volumes were removed to reduce to 40 µL per well. Then, the positive control of menadione, a polycyclic aromatic ketone based on 1,4-naphthoquinone, was used to treat its respective well, and H2O2 substrate was added for all treatments, followed by the incubation of the plate for the 2 h remaining. After the times of 3, 6, 24, and 48 h, the detection solution was added, and the plates remained at room temperature for 20 min, following the reading in the luminometer.

CC1(C)CC(=O)C2=C(C1)NC1=C(C(=O)c3ccccc3C1=O)C2c1ccc(Cl)cc1Cl (stereo not drawn) [4e, 12-(2,4-dichlorophenyl)-3,3-dimethyl-3,4-dihydrobenzo[b]acridine-1,6,11(2H,5H,12H)-trione]
pIC50 (SCC9 (OSCC cell); Homo sapiens, SCC-9, SCC9, 48 h, MTT (Table 1), read-out: SCC9—Oral Cancer IC50): 4.83 | SCC9 S.I. (SCC9 (OSCC cell); IC50 normal oral fibroblasts / IC50 SCC9): 6.0 | pIC50 (SCC25 OSCC cell line; Homo sapiens, SCC-25, SCC25, 48 h, MTT, read-out: Oral Tumor Cells SCC25 IC50): 4.67 | SCC25 S.I. (SCC25 OSCC cell line; IC50 normal oral fibroblasts / IC50 SCC25): 4.1 | pIC50 (SCC4 OSCC cell line; Homo sapiens, SCC-4, SCC4, 48 h, MTT, read-out: Oral Tumor Cells SCC4 IC50): 4.27 | SCC4 S.I. (SCC4 OSCC cell line; IC50 normal oral fibroblasts / IC50 SCC4): 1.6 | pIC50 ([1]; Homo sapiens, mean of SCC4, SCC9, SCC25): 4.52 | SI (mean selectivity index) ([1]; mean over OSCC cell lines vs normal fibroblasts): 2.9 and 2.93 | hemolysis at 300 µM (Hemolysis assay): < 3% | active caspase 3/7 labeling, cells (SCC9 cells [2]): 52.4% and ~ 52% | Annexin V and Annexin V + PI staining (SCC9 cells [3]): increased single (Annexin V) and double (Annexin V + PI) staining | ROS production (SCC9 cells [4]): low production of ROS
